Measurements reported in patent US20150374676A1, “HELICASE-PRIMASE INHIBITORS FOR USE IN A METHOD OF TREATING ALZHEIMER'S DISEASE” (AICURIS GMBH & CO. KG, priority 2013, published 2015).

Assays:
[1] = tested on: HSV-1; test: HSV-1 infected SH-SY5Y cells, immunocytochemistry for HSV-1 proteins, Aβ and P-tau; format: cell-based, herpes simplex virus type 1; settings: MOI 0.01 pfu/cell, 24 h; for staining for Aβ / staining for P-tau: 0.025-25 μM
Procedure: (§1) SH-SY5Y cells were infected with HSV-1 at 0.01 plaque forming units (pfu) per cell [pfu/cell] for 24 hours and treated with varying concentrations of ACV and/or the exemplary compound according to Formula (I). Subsequently, cells were fixed and examined for HSV-1 proteins (A), Aβ (B) and P-tau (C) by immunocytochemistry. 1=vehicle; 2-5=increasing concentrations of the exemplary compound according to Formula (I) [0.025, 0.25, 2.5, 25 μM]; 6-9=increasing concentrations of acyclovir [0.025, 0.25, 2.5, 25 μM].
(§2) The inventors have compared the efficacy of the exemplary compound according to Formula (I) with that of ACV in respect to Aβ and P-tau accumulation in HSV-1 infected cells. African green monkey kidney (Vero) cells or human neuroblastoma (SH-SY5Y) cells were infected with HSV-1 at a multiplicity of infection (MOI) of 0.01 plaque forming units (pfu) per cell [pfu/cell] for 24 hours and were treated with the exemplary compound according to Formula (I), or ACV. The antiviral agents were added at the time of infection and remained throughout the infection. Infection led to typical cytopathic effects (clustering of infected cells positive for HSV-1 protein staining (FIGS. 1A and 2 A, panel 1)).

[2] = safety and tolerability in single and multiple dose phase I trials; format: in vivo, human; settings: healthy male volunteers, single dose and daily doses for 21 days
Procedure: The results were compared with the effective concentration of the free base of N-[5-(aminosulfonyl)-4-methyl-1,3-thiazol-2-yl]-N-methyl-2-[4-(2-pyridinyl)phenyl]acetamide in cell culture and correlated to exposures reached in healthy male volunteers in single and multiple dose phase I trials (see FIGS. 4-7).
(§3) In healthy male volunteers these plasma concentrations were covered by a single dose of 40 mg as free base equivalent to the crystalline mono mesylate monohydrate salt of N-[5-(aminosulfonyl)-4-methyl-1,3-thiazol-2-yl]-N-methyl-2-[4-(2-pyridinyl)phenyl]-acetamide (see FIG. 4) and at steady state by daily doses of 25 mg as free base equivalent (see FIG. 5) for 21 days.

[3] = absolute bioavailability after oral administration; settings: in vivo; oral administration of the mono mesylate monohydrate salt in a composition of the invention; human; read-out: absolute bioavailability of the free base
Excerpt: In yet another aspect of the invention said absolute bioavailability of 70%±30% of the resultant free base form of N-[5-(aminosulfonyl)-4-methyl-1,3-thiazol-2-yl]-N-methyl-2-[4-(2-pyridinyl)-phenyl]acetamide is achieved in a human.
In the context of the present invention the term “bioavailability” denotes a subcategory of absorption. Bioavailability denotes the fraction of an administered oral dose of the crystalline N-[5-(aminosulfonyl)-4-methyl-1,3-thiazol-2-yl]-N-methyl-2-[4-(2-pyridinyl)-phenyl]acetamide mono methanesulfonic acid monohydrate of the invention that reaches the systemic circulation of a subject as the resultant free base form of N-[5-(aminosulfonyl)-4-methyl-1,3-thiazol-2-yl]-N-methyl-2-[4-(2-pyridinyl)-phenyl]acetamide. By definition, when a medication is administered intravenously, its bioavailability is 100%. However, when a medication is administered via other routes (such as orally), its bioavailability generally decreases (due to incomplete absorption and first-pass metabolism) or may vary from individual to individual. Bioavailability is one of the essential tools in pharmacokinetics, as bioavailability must be considered when calculating dosages for non-intravenous routes of administration.

[4] = tested on: HSV-1; test: HSV-1 infected Vero cells, immunocytochemistry for HSV-1 proteins, Aβ and P-tau; format: cell-based, herpes simplex virus type 1; settings: MOI 0.01 pfu/cell, 24 h; for staining for Aβ / staining for P-tau: 0.025-25 μM
Procedure: as §1, with “Vero” for “SH-SY5Y”, “Aβ(B)” for “Aβ (B)”
as §2

[5] = tested on: HSV; test: murine HSV skin infection model; format: in vivo; settings: oral doses of 5 mg/kg or higher once daily for four days; data not shown
Procedure: To assess the pharmacokinetic/pharmacodynamic profile the effective dose of the specific free base of N-[5-(aminosulfonyl)-4-methyl-1,3-thiazol-2-yl]-N-methyl-2-[4-(2-pyridinyl)phenyl]-acetamide was validated in a murine HSV skin infection model and associated plasma concentrations were determined (data not shown).
as §3

[6] = cited from earlier work
[7] = in vivo; cited from earlier work
[8] = tested on: HSV-1; settings: HSV-1-infected cell cultures; cited from earlier work
[9] = higher concentrations 0.25, 2.5, 25 μM

Compound	antibody staining to HSV-1 proteins, Aβ and P-tau [1]	cluster size of HSV-1 infected cells (HSV-1 protein staining) ([1]; 0.025 μM)	staining for Aβ [1]	staining for P-tau [1]	cluster size of HSV-1 infected cells (HSV-1 protein staining) [1, 9]	safety and tolerability [2]	bioavailability [3] [%]	antibody staining to HSV-1 proteins, Aβ and P-tau [4]	cluster size of HSV-1 infected cells (HSV-1 protein staining) ([4]; 0.025 μM)	staining for Aβ [4]	staining for P-tau [4]	cluster size of HSV-1 infected cells (HSV-1 protein staining) [4, 9]	suppression of murine HSV skin infection [5]	water solubility [6]	oral bioavailability [7]	HSV-1 induced accumulation of Aβ and P-tau [8]
Cc1nc(N(C)C(=O)Cc2ccc(-c3ccccn3)cc2)sc1S(N)(=O)=O [N-[5-(aminosulfonyl)-4-methyl-1,3-thiazol-2-yl]-N-methyl-2-[4-(2-pyridinyl)phenyl]acetamid]	total or almost total removal of antibody staining	slightly smaller compared to control	reduced	reduced	clusters disappear and only occasionally infected cells could be detected	safe and well tolerated up to the highest dose tested	70	total or almost total removal of antibody staining	slightly smaller compared to control	reduced	reduced	clusters disappear and only occasionally infected cells could be detected	completely suppressed	–	–	–
Nc1nc2c(ncn2COCCO)c(=O)[nH]1 [ACV, acyclovir, reference compound]	–	little effect on cluster sizes	still visible at higher concentrations of ACV	still visible at higher concentrations of ACV	reduced their sizes but less so than did the treatment with equimolar exemplary compound according to Formula (I)	–	–	–	little effect on cluster sizes	still visible at higher concentrations of ACV	still visible at higher concentrations of ACV	reduced their sizes but less so than did the treatment with equimolar exemplary compound according to Formula (I)	–	poorly water-soluble	15-30%	reduced the virus-induced accumulation of Aβ and P-tau
